Measurements taken from ChEMBL document CHEMBL1140610, “Matrix metalloproteinases (MMPs): chemical-biological functions and (Q)SARs” (Bioorg Med Chem, 2007).

Columns and labels:
[1] = molecular target: Collagenase 3 (Homo sapiens, UniProt P45452)
[2] = molecular target: Neutrophil collagenase (Homo sapiens, UniProt P22894); conditions: read-out: log(1/IC50) (converted)
Sequence of Neutrophil collagenase (P22894 whole entry): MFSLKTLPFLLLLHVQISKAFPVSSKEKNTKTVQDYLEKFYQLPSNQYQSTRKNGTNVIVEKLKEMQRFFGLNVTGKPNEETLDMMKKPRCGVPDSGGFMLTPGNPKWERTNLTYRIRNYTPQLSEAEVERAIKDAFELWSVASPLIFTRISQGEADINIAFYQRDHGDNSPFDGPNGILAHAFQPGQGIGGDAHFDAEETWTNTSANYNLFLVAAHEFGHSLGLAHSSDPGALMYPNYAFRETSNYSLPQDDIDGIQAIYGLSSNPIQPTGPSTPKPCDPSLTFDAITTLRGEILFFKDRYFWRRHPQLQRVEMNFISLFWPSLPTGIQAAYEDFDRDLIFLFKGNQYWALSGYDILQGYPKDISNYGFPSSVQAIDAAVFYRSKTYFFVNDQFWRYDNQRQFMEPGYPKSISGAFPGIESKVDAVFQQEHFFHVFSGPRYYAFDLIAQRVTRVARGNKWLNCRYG

| Structure (SMILES) | IC50 [1] [nM] | IC50 [2] [nM] |
| --- | --- | --- |
| COc1ccc(S(=O)(=O)N2CCCN(C(=O)CNOC(=O)C(C)(C)C)CC2C(=O)NO)cc1 (stereo not given) | 15.8 | – |
| COc1ccc(S(=O)(=O)N2CCN(C(=O)C(O)C(C)C)CC2C(=O)NO)cc1 (stereo not given) | 1 | – |
| COc1ccc(S(=O)(=O)N2CCN(C(=O)c3nnsc3C)CC2C(=O)NO)cc1 (stereo not given) | 20.9 | – |
| COCCOC(=O)N1CCC(C(C(=O)O)N(Cc2cccnc2)S(=O)(=O)c2ccc(-c3ccc(OC)cc3)cc2)CC1 (stereo not given) | 3.02 | 3.24 |
